Results reported in patent US4883791A, “25S,26-dihydroxycholecalciferol in the treatment of hypercalcitriolemic disease states” (Board of Regents, The University of Texas System, priority 1987, dated 1989).
Entries after “also recorded” stand apart in the source; their conditions may differ.

Tests used:
[1] = Serum 25S,26(OH)2 D level after administration (rat serum vitamin D binding protein assay); format: in vivo, Sprague-Dawley rats (adult female); conditions: mean ± SE
Description: (§1) Adult female Sprague-Dawley rats weighing between 190-200 g were used in all studies and were purchased from Harlan (Houston, TX). The animals were housed in the animal resource facility and were fed a standard vitamin D-replete rat chow diet (2.0% calcium and 0.9% phorphorus, Tekland, Winfield, OH) ad lib. After four to five days of equlibration the animals were divided into appropriate study groups and injected subcutaneously each day with various doses of 25(S),26(OH)2 D3 or 1,25(OH)2 D3 metabolites. In some experiments, animals received both metabolites as two separate injections. Control animals received only vehicle (propylene glycol).
Two ml of serum was obtained for each rat for measurement of 25(S),26(OH)2 D3, and 1,25-(OH)2 D3. […] This chromatographic system effectively separates 250HD (5-11 ml) from the dihydroxy metabolites (14-30 ml). The trihydroxy metabolite 1,25,26(OH)3 D is eluted from the column by changing the solvent system to 8:2:2:0.015 (hexane:chloroform:methanol:H2 O) after elution of the dihydroxy metabolites and collecting the next 12 ml.
250HD was purified on a 5% 2-propanol in hexane solvent system. The three dihydroxyvitamin D metabolites were isolated and purified using an 11% 2-propanol in hexane solvent system. […] The assay of 1,25(OH)2 D was accomplished using the chick intestinal receptor protein.
(§2) Values in parenthesis represent p value of significant difference between
(§3) dosed and control animals as determined by nonparametric analysis and
(§4) Welch's approximation to the t test. All values expressed as mean ± SE
(§5) for seven rats per group.
(§6) ^a 1,25(OH)2 D3 administered subcutaneously at a dose of
(§7) 0.15 μg/d/rat for three days
(§8) ^b 25S,26(OH)2 D3 administered subcutaneously for seven day
(§9) at a dose of 20 μg/d/rat; on days 5, 6, and 7 both 25S,26(OH)2
(§10) D3 and 1,25(OH)2 D3 (0.15 μg/d/rat) were given as two

[2] = Effect of 25S,26(OH)2 D3 administration on 1,25(OH)2 D3 mediated increases in serum 1,25(OH)2 D3; format: in vivo, Sprague-Dawley rats (adult female); conditions: for serum 1,25(OH)2 D: mean ± SE
Description: as §1
Two ml of serum was obtained for each rat for measurement of 25(S),26(OH)2 D3, and 1,25-(OH)2 D3. After spiking the samples with approximately 1200 cpm of radiolabeled 250HD3, 24,25-(OH)2 D3 and 1,25(OH)2 D3 and allowing the samples to equilibrate for 30 minutes, isolation of the vitamin D metabolites was accomplished as described in Bishop JE, Norman AW, Coburn JW, Roberts PA, Henry, HL 1980 "Determination of the concentration of 25-hydroxyvitamin D, 24,25-dihydroxyvitamin D and 1,25-dihydroxyvitamin D in a single two-milliliter plasma sample." Min Elect Metab 3: 181. Further separation and partial purification of the metabolites was effected with lipohilic Sephadex (Sigma, St. Louis, MO) liquid gel chromatography using a 9:1:1:0.015 (hexane:chloroform:methanol:H2 O) solvent system and a 10×1 cm gel bed as previously described by Eisman JA, Hamstra AJ, Kream BD, DeLuca HF, 1975, "A sensitive, precise and convenient method for determination of 1,25-dihydroxyvitamin D in human plasma." Arch Biochem Biophys 176: 235. This chromatographic system effectively separates 250HD (5-11 ml) from the dihydroxy metabolites (14-30 ml). The trihydroxy metabolite 1,25,26(OH)3 D is eluted from the column by changing the solvent system to 8:2:2:0.015 (hexane:chloroform:methanol:H2 O) after elution of the dihydroxy metabolites and collecting the next 12 ml.
Final resolution and purification of the vitamin D metabolites was performed with high pressure liquid chromatography as previously described in Zerwekh et al., 1983, "Extra-renal production of 24,25-dihydroxyvitaminD in chronic renal failure during 25-hydroxyvitamin D3 therapy." Kid Int. 23: 401 and Pak et al., 1982, "Effects of short-term glucocorticoid administration in primary hyperparathyroidism: comparison to sarcoidiosis J. Clin. Endrocrinol Metab. 54: 824. 250HD was purified on a 5% 2-propanol in hexane solvent system. The three dihydroxyvitamin D metabolites were isolated and purified using an 11% 2-propanol in hexane solvent system. The assay of 25S,26-(OH)2 D was performed using the rat serum vitamin D binding protein assay system described in Haddad JG, Chyu KF 1971 "competitive protein binding assay for 25-hydroxycholecalciferol." J Clin Endocrinol Metab 33: 992. The assay of 1,25(OH)2 D was accomplished using the chick intestinal receptor protein.
as §2, §3, §4, §5, §6, §7, §8, §9, §10

Row | serum 25S,26(OH)2 D ([1]; Exp. 1, 25S,26(OH)2 D3 20 μg/d/rat s.c. seven days + 1,25(OH)2 D3 0.15 μg/d/rat days 5, 6, 7, control 1.9 ± 0.2, p < 0.001) [ng/mL] | serum 25S,26(OH)2 D ([1]; Exp. 2, 25S,26(OH)2 D3 + 1,25(OH)2 D3 s.c., seven rats, control 2.0 ± 0.2, p < 0.01) [ng/mL] | serum 25S,26(OH)2 D ([1]; Exp. 3, 25S,26(OH)2 D3 + 1,25(OH)2 D3 s.c., seven rats, control 1.20 ± 0.1, p < 0.006) [ng/mL] | SMILES | serum 25S,26(OH)2 D ([1]; Exp. 1, 1,25(OH)2 D3 alone, 0.15 μg/d/rat s.c., three days, seven rats, control 1.9 ± 0.2) [ng/mL] | serum 25S,26(OH)2 D ([1]; Exp. 2, 1,25(OH)2 D3 alone s.c., seven rats, control 2.0 ± 0.2) [ng/mL] | serum 25S,26(OH)2 D ([1]; Exp. 3, 1,25(OH)2 D3 alone s.c., seven rats, control 1.20 ± 0.1) [ng/mL] | serum 1,25(OH)2 D ([2]; Exp. 1, 1,25(OH)2 D3 alone, 0.15 μg/d/rat s.c., three days, seven rats, control 25 ± 3, p < 0.001) [pg/mL] | serum 1,25(OH)2 D ([2]; Exp. 2, 1,25(OH)2 D3 alone s.c., seven rats, control 23 ± 3, p = 0.006) [pg/mL] | serum 1,25(OH)2 D ([2]; Exp. 3, 1,25(OH)2 D3 alone s.c., seven rats, control 27 ± 4, p < 0.001) [pg/mL] | serum 1,25(OH)2 D ([2]; Exp. 1, 25S,26(OH)2 D3 20 μg/d/rat s.c. seven days + 1,25(OH)2 D3 0.15 μg/d/rat days 5, 6, 7, control 25 ± 3) [pg/mL] | serum 1,25(OH)2 D ([2]; Exp. 2, 25S,26(OH)2 D3 + 1,25(OH)2 D3 s.c., seven rats, control 23 ± 3) [pg/mL] | serum 1,25(OH)2 D ([2]; Exp. 3, 25S,26(OH)2 D3 + 1,25(OH)2 D3 s.c., seven rats, control 27 ± 4) [pg/mL] | reduction of serum / endogenous 1,25-dihydroxycholecalciferol ([2]; result in words)
1 |  |  |  | C=C1/C(=C\C=C2/CCC[C@]3(C)[C@@H]([C@H](C)CCCC(C)(C)O)CC[C@@H]23)C[C@@H](O)C[C@@H]1O [1,25(OH)2 D3, 1α,25-dihydroxycholecalciferol, reference compound] | 3.0 ± 0.8 | 3.20 ± 0.3 | 0.9 ± 0.3 | 206 ± 17 | 175 ± 52 | 180 ± 45 |  |  |  | 
2 | 295 ± 7 | 168 ± 14 | 236 ± 28 | C=C1CC[C@H](O)C/C1=C/C=C1\CCC[C@]2(C)[C@@H]([C@H](C)CCC[C@](C)(O)CO)CC[C@@H]12 [25S,26(OH)2 D3, 25S,26-dihydroxycholecalciferol] |  |  |  |  |  |  | 59 ± 3 | 46 ± 4 | 38 ± 6 | lowers endogenous levels of 1α,25-dihydroxycholecalciferol; also recorded: active in reducing serum concentrations of 1,25-dihydroxycholecalciferol
